Like-named read-outs stand apart in the source and are kept apart here.
Tests used:
WEEV genome replicon [1] = assay: organism not typed; assay type: cell-based; details: for IC50: read-out: IC50, inhibition of luciferase expression in WEEV replicon assay
[2] = system: FMV-infected BE(2)-C cells; assay: Antiviral assay in FMV-infected BE; assay type: cell-based
WEEV genome replicon [3] = details: read-out: IC50, inhibition of luciferase expression in WEEV replicon assay; cited from earlier work

SMILES	Loss of potency relative to lead 2 in WEEV replicon assay (WEEV genome replicon [1])	Activity in WEEV replicon assay, in words (WEEV genome replicon [1])	also measured
O=C(NCCc1ccncc1)C1CC2(C1)CN(C(=O)c1cc3ccccc3n1Cc1ccc(Cl)cc1)C2 [compound 28]	over 20 fold		
O=C(NCCc1ccncc1)C1CCN(C(=O)c2cc3ccccc3n2Cc2ccc(Cl)cc2)CC1 [compound 2]			Enhancement of infected cell viability ([2]; 25 μM): two-fold enhancement; IC50 (WEEV genome replicon [3]): 0.53 ± 0.08 µM
CC1(C(=O)NCCc2ccncc2)CCN(C(=O)c2cc3ccccc3n2Cc2ccc(Cl)cc2)CC1 [compound 23]		lost all activity	
O=C(NCCc1ccncc1)[C@H]1[C@@H]2CCN(C(=O)c3cc4ccccc4n3Cc3ccc(Cl)cc3)C[C@@H]21 [compound 26]	over 20 fold		
O=C(c1cc2ccccc2n1Cc1ccc(Cl)cc1)N1CCC(/C=C\CCc2ccncc2)CC1 [compound 18]		lost all activity	IC50 (WEEV genome replicon [1]): > 50 µM
O=C(c1cc2ccccc2n1Cc1ccc(Cl)cc1)N1CCC(/C=C/CCc2ccncc2)CC1 [compound 17]		lost all activity	IC50 (WEEV genome replicon [1]): > 50 µM
O=C(NCCc1ccncc1)C1CCCN(C(=O)c2cc3ccccc3n2Cc2ccc(Cl)cc2)CC1 (centres unmarked) [compound 29]			Improvement in infected cell viability versus negative control ([2]; 5 μM): nearly two-fold improvement
O=C(NCCc1ccncc1)C1=CCN(C(=O)c2cc3ccccc3n2Cc2ccc(Cl)cc2)CC1 [compound 22]	~10 fold		

Source: publication PMC8272561 (Bioorganic & medicinal chemistry letters, 2021)
